Laboratory results published in US11124490B2, “Autotaxin inhibitors” (UNIVERSITY OF TENNESSEE RESEARCH FOUNDATION, priority 2016, dated 2021).
Where “and” joins values, the source holds several entries; their conditions need not be identical. Identical values can stand only once.

Key:
human recombinant ATX [1] = molecular target: T1, human recombinant ATX (Homo sapiens (Human), UniProt Q13822); assay: ATX inhibition, hydrolysis of nucleotide substrate pNP-TMP; type: biochemical; settings: 1 mM pNP-TMP, 4 nM ATX, compound 0 to 1 μM
Protocol: (§1) ATX Generation: Human recombinant ATX was expressed as published previously, using Sf9 Spodoptera frugiperda ovary cells (Invitrogen, Carlsbad, Calif.).^13 Suspension cells were grown to a 1 liter quantity at a concentration of 1×10^6 cells/ml in Sf-900 III serum-free medium (Invitrogen) supplemented with 50 U/ml penicillin and 50 μg/ml streptomycin at 27° C. with agitation. Cells were then infected with high-titer baculovirus generated via Bac-to-Bac Baculovirus Expression System (Invitrogen) using the pCMV5 mammalian expression vector containing the C-terminal FLAG-tagged human ATX sequence (a generous gift from Dr. Junken Aoko, ohoku University, Aoba-ku, Sendai, Japan) subcloned into the pFastBacl transfer vector. […] Resultant ATX was then concentrated via centrifugation in Amicon Ultra 30,000 molecular weight cut off filter units (Millipore, Billerica, Mass.) and subsequent buffer exchange into storage buffer comprised of 50 mM Tris, pH 7.4 with 20% (v/v) ethylene glycol. Protein was held at −80° C. for long-term storage.
(§2) ATX Inhibition: ATX activity was assessed via hydrolysis of the synthetic, lipid-like FRET-based substrate FS-3 (Echelon Biosciences, Salt Lake City, Utah) or via hydrolysis of the nucleotide substrate p-nitrophenyl thymidine 5′-monophosphate (pNP-TMP) as described previously.^2 Reaction wells were loaded in 60 μl volumes in triplicate wells of half-area, black-wall 96-well plates in assay buffer consisting of 50 mM Tris, 140 mM NaCl, 5 mM KCl, 1 mM CaCl2, 1 mM MgCl2, […] BSA, pH 8.0. […] Fluorescence was read every 2 minutes for 1 hour at excitation/emission wavelengths of 485/528 nm for FS-3 hydrolysis or 405 nm absorbance for pNP-TMP hydrolysis using a FlexStation 3 microplate reader (Molecular Devices, Sunnyvale, Calif.). Data (relative fluorescence or absorbance) were then recorded as a mean value of the triplicates for each sample versus time. […] In the case of mechanism determination, the linear fluorescence data from time 10 minutes to 30 minutes were then transformed using a carboxyfluorescein standard curve to determine product concentration and plotted separately. Linear trend lines were inserted using Microsoft Excel, the slope of which represent the rates of reaction for each substrate concentration. This reaction rate data for each inhibitor concentration were then plotted against substrate (FS-3) concentration and simultaneously fitted via non-linear regression in the Michaelis-Menten equations for competitive, non-competitive, uncompetitive, and mixed-mode inhibition using GraphPad Prism version 5.0a. Mechanism of inhibition was determined by which curve fit had the best global fit (R^2 value).

human recombinant ATX [2] = molecular target: T1, human recombinant ATX; assay: ATX inhibition, hydrolysis of FRET substrate FS-3; type: biochemical; settings: for IC50: 1 μM FS-3, 4 nM human recombinant ATX, 1 hour time point, read-out: IC50 (nM ± SD) vs FS-3
Protocol: as §1, §2

SMILES | pNP-TMP Inhibition (human recombinant ATX [1]) | IC50 (human recombinant ATX [2]) | ATX inhibitory activity (in words) (human recombinant ATX [2]) | Mechanism (human recombinant ATX [2]; mechanism of inhibition, FS-3 0 to 10 μM, inhibitor 0, 0.5×IC50 or 2×IC50) | fold IC50 improvement relative to screening hit 918013 (human recombinant ATX [2])
O=S(=O)(c1cc(C(=S)Nc2cccc(F)c2)c(Cl)cc1Cl)N1CCOCC1 [Compound 12, 2,4-dichloro-N-(3-fluorophenyl)-5-(morpholinosulfonyl)benzothioamide] | None | 121.5 ± 1.02 nM | – | – | –
O=S(=O)(c1cc(CNc2ccc(F)c(F)c2)c(Cl)cc1Cl)N1CCOCC1 [Compound 10, N-(2,4-dichloro-5-(morpholinosulfonyl)benzyl)-3,4-difluoroaniline] | None | – | greatly deteriorated | – | –
O=C(Nc1cccc(F)c1)c1cc(S(=O)(=O)N2CCOCC2)c(Cl)cc1Cl [Compound 918013, 2,4-dichloro-N-(3-fluorophenyl)-5-(morpholinosulfonyl)benzamide, reference compound] | None | 117 ± 1.97 nM | – | Competitive | –
O=C(Nc1cc(F)c(F)c(F)c1Br)c1cc(S(=O)(=O)N2CCOCC2)c(Cl)cc1Cl [Compound 5, N-(2-bromo-3,4,5-trifluorophenyl)-2,4-dichloro-5-(morpholinosulfonyl)benzamide] | – | – | strong ATX inhibition | – | seven fold
CN1CCN(S(=O)(=O)c2cc(C(=S)Nc3cc(Cl)c(F)c(Cl)c3)c(Cl)cc2Cl)CC1 [Compound 29, 2,4-dichloro-N-(3,5-dichloro-4-fluorophenyl)-5-((4-methylpiperazin-1-yl)sulfonyl)-benzothioamide] | None | 100 ± 8.11 nM | – | – | –
CN1CCN(S(=O)(=O)c2cc(C(=O)Nc3cc(Cl)c(F)c(Cl)c3)c(Cl)cc2Cl)CC1 [Compound 28b, 2,4-dichloro-N-(3,5-dichloro-4-fluorophenyl)-5-((4-methylpiperazin-1-yl)sulfonyl)benzamide] | None | 55 nM and 55.5 nM | – | – | –
O=S(=O)(Nc1cc(S(=O)(=O)N2CCOCC2)c(Cl)cc1Cl)c1cccc(F)c1 [Compound 19] | None | > 1000 nM | – | – | –
O=S(=O)(Nc1cccc(F)c1)c1cc(S(=O)(=O)N2CCOCC2)c(Cl)cc1Cl [Compound 22, 2,4-dichloro-N-(3-fluorophenyl)-5-(morpholinosulfonyl)benzenesulfonamide] | None | > 1000 nM | – | – | –
O=C(Nc1c(F)c(F)c(F)c(F)c1F)c1cc(S(=O)(=O)N2CCOCC2)c(Cl)cc1Cl [Compound 3c, 2,4-dichloro-5-(morpholinosulfonyl)-N-(perfluorophenyl)benzamide] | None | 1030 nM | poorly active | – | –
N#Cc1c(F)cc(NC(=O)c2cc(S(=O)(=O)N3CCOCC3)c(Cl)cc2Cl)cc1F [Compound 3h, 2,4-dichloro-N-(4-cyano-3,5-difluorophenyl)-5-(morpholinosulfonyl)benzamide] | None | 190 ± 13.1 nM | – | – | –
O=C(Nc1cc(F)c(C(=O)O)c(F)c1)c1cc(S(=O)(=O)N2CCOCC2)c(Cl)cc1Cl [Compound 4, 4-(2,4-dichloro-5-(morpholinosulfonyl)benzamido)-2,6-difluorobenzoic Acid] | None | > 1000 nM | relatively inactive | – | –
CN(C(=O)c1cc(S(=O)(=O)N2CCOCC2)c(Cl)cc1Cl)c1cccc(F)c1 [Compound 9, 2,4-dichloro-N-(3-fluorophenyl)-N-methyl-5-(morpholinosulfonyl)benzamide] | – | – | low activity | – | –
COc1cc(NC(=O)c2cc(S(=O)(=O)N3CCOCC3)c(Cl)cc2Cl)cc(OC)c1OC [Compound 3e, 2,4-dichloro-5-(morpholinosulfonyl)-N-(3,4,5-trimethoxyphenyl)benzamide] | None | > 1000 nM | poorly active | – | –
CS(=O)(=O)N(C(=O)c1cc(NN2CCOCC2)c(Cl)cc1Cl)c1cc(F)c(F)c(F)c1 [Compound 26a, 2,4-dichloro-N-(methylsulfonyl)-5-(morpholinoamino)-N-(3,4,5-trifluorophenyl)-benzamide] | None | > 1000 nM | inactive | – | –
O=S(=O)(c1cc(C(=S)Nc2ccc(F)c(F)c2)c(Cl)cc1Cl)N1CCOCC1 [Compound 13, 2,4-dichloro-N-(3,4-difluorophenyl)-5-(morpholinosulfonyl)benzothioamide] | None | 67.3 ± 9.73 nM | – | – | –
O=S(=O)(c1cc(CNc2cc(F)c(F)c(F)c2)c(Cl)cc1Cl)N1CCOCC1 [Compound 11, N-(2,4-dichloro-5-(morpholinosulfonyl)benzyl)-3,4,5-trifluoroaniline] | None | 396 ± 44.1 nM | – | – | –
O=S(=O)(c1cc(-c2nc3cc(F)c(F)cc3[nH]2)c(Cl)cc1Cl)N1CCOCC1 [Compound 8, 4-((2,4-dichloro-5-(5,6-difluoro-1H-benzo[d]imidazol-2-yl)phenyl)sulfonyl)-morpholine] | – | – | inactive | – | –
O=S(=O)(c1cc(-c2nc3cccc(F)c3o2)c(Cl)cc1Cl)N1CCOCC1 [Compound 7, 2-(2,4-dichloro-5-(morpholinosulfonyl)phenyl)-7-fluorobenzo[d]oxazole] | – | – | inactive | – | –
O=S(=O)(c1cc(N(S(=O)(=O)c2cccc(F)c2)S(=O)(=O)c2cccc(F)c2)c(Cl)cc1Cl)N1CCOCC1 [Compound 20] | None | > 1000 nM | – | – | –
O=C(Nc1cc(F)c(F)c(F)c1)c1cc(NN2CCOCC2)c(Cl)cc1Cl [Compound 25, 2,4-dichloro-5-(morpholinoamino)-N-(3,4,5-trifluorophenyl)benzamide] | None | > 1000 nM | inactive | – | –
O=S(=O)(c1cc(C(=S)Nc2cc(F)c(F)c(F)c2)c(Cl)cc1Cl)N1CCOCC1 [Compound 14, 2,4-dichloro-5-(morpholinosulfonyl)-N-(3,4,5-trifluorophenyl)benzothioamide] | None | 35.3 ± 2.66 nM | – | – | three fold
O=S(=O)(Nc1cc(F)c(F)c(F)c1)c1cc(S(=O)(=O)N2CCOCC2)c(Cl)cc1Cl [Compound 23, 2,4-dichloro-5-(morpholinosulfonyl)-N-(3,4,5-trifluorophenyl)benzenesulfonamide] | None | > 1000 nM | – | – | –
O=C(Nc1cc(Cl)c(Cl)c(Cl)c1)c1cc(S(=O)(=O)N2CCOCC2)c(Cl)cc1Cl [Compound 3d, 2,4-dichloro-5-(morpholinosulfonyl)-N-(3,4,5-trichlorophenyl)benzamide] | None | > 1000 nM | poorly active | – | –
O=S(=O)(c1cc(C(=S)Nc2cc(Cl)c(F)c(Cl)c2)c(Cl)cc1Cl)N1CCOCC1 [Compound 15, 2,4-dichloro-N-(3,5-dichloro-4-fluorophenyl)-5-(morpholinosulfonyl)-benzothioamide] | None | 83.1 ± 9.77 nM | – | – | –
CN1CCN(S(=O)(=O)c2cc(C(=O)Nc3cc(F)c(F)c(F)c3)c(Cl)cc2Cl)CC1 [Compound 28a, 2,4-dichloro-5-((4-methylpiperazin-1-yl)sulfonyl)-N-(3,4,5-trifluorophenyl)-benzamide] | None | 66 nM and 66.9 nM | – | – | –
COC(=O)c1c(F)cc(NC(=O)c2cc(S(=O)(=O)N3CCOCC3)c(Cl)cc2Cl)cc1F [Compound 3i, Methyl 4-(2,4-dichloro-5-(morpholinosulfonyl)benzamido)-2,6-difluorobenzoate] | None | 864 ± 51.9 nM | – | – | –
